Source: patent US8394786B2, “Quinazoline derivatives” (Janssen Pharmaceutica N.V., priority 2003, dated 2013)

Key:
SKOV3 cells = experiment: Serum starved proliferation assay on the ovarian carcinoma SKOV3 cells (C3); assay type: cell-based; conditions: EGF stimulated (100 ng/ml, 72 hours, serum free) or 72 hours with compounds, MTT cell viability assay; for IC50: Homo sapiens, SK-OV-3, 72 h, read-out: SKOV3 cell (C3): pIC50 (converted)
Outline: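 SKOV3 cells grown 24 h in 10% FCS, then treated with compound under serum-free conditions (37 °C, 5% CO2) and stimulated 72 h with EGF at 100 ng/ml final; read-out by MTT viability. Alternative format: compound for 72 h after the same 24 h FCS step, also by MTT.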

EGFR = EGFR (Homo sapiens, UniProt P00533); experiment: In vitro inhibition of EGFR, Flash Plate or glass-fiber filter technology (C2); assay type: biochemical; design: 0.5 μg EGFR-kinase domain/well; conditions: EGFR-kinase domain, 5.0 μM unlabeled ATP, read-out: Kinase activity.(C2): pIC50 (converted)
Sequence of EGFR (P00533 712-979 limits assumed): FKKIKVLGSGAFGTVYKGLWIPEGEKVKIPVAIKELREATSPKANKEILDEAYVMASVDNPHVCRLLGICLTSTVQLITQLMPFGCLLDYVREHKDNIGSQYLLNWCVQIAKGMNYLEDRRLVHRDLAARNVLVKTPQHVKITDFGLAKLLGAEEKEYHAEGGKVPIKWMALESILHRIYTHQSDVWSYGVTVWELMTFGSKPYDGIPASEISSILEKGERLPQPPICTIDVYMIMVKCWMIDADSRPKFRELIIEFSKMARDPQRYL
Outline: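 EGFR kinase domain (0.5 μg/well) phosphorylated poly(GT) with 5.0 μM ATP plus AT^33P, dose response 1·10^−6 to 1·10^−10 M. Flash Plate: biotin-poly(GT), Tris pH 8.0, 30° C, 60 min, scintillation counting. Filter: Tris pH 7.5 with MnCl2, 25° C, 10 min, 33P counted on glass-fiber filter by phosphorimaging.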

| SMILES | IC50 (SKOV3 cells) | melting point | IC50 (EGFR) | SKOV3 cell (C3): pIC50 (SKOV3 cells) |
| --- | --- | --- | --- | --- |
| COc1cc2ncnc3c2cc1OCCNC(=O)C(C)(C)NC(=O)Cc1ccc(Cl)cc1N3 [Compound 65, 4,6-ethanediylidene-8H-pyrimido[4,5-b][6,1,9,12]benzoxatriazacyclohexadecine-11,14-dione, 18-chloro-9,10,12,13,15,20-hexahydro-21-methoxy-12,12-dimethyl-] | 20 nM | 285 °C | 12.6 nM |  |
| COc1cc2ncnc3c2cc1OCCNC(=O)C(C(C)C)NC(=O)Cc1ccc(Cl)cc1N3 (stereo not shown) [Compound 66, 4,6-ethanediylidene-8H-pyrimido[4,5-b][6,1,9,12]benzoxatriazacyclohexadecine-11,14-dione, 18-chloro-9,10,12,13,15,20-hexahydro-21-methoxy-12-(1-methylethyl)-] | 10 nM | 335 °C | 79.4 nM |  |
| COc1cc2ncnc3c2cc1OCCNC(=O)CNC(=O)Cc1ccc(Cl)cc1N3 [Compound 69, 4,6-ethanediylidene-8H-pyrimido[4,5-b][6,1,9,12]benzoxatriazacyclohexadecine-11,14-dione, 18-chloro-9,10,12,13,15,20-hexahydro-21-methoxy-] | 63.1 nM | 292 °C | 50.1 nM |  |
| COc1cc2ncnc3c2cc1OCCCNC(=O)CCNCc1ccc(Cl)cc1N3 [Compound 70, 4,6-ethanediylidenepyrimido[4,5-b][6,1,10,14]benzoxatriazacycloheptadecin-12(13H)-one, 19-chloro-8,9,10,11,14,15,16,21-octahydro-22-methoxy-] | 3160 nM | 236.4 to 237.3 °C | 10 nM |  |
| COc1cc2ncnc3c2cc1OCCNC(=O)C1CCCN1Cc1ccc(Cl)cc1N3 (stereo not shown) [Compound 71, 4,6-ethanediylidenepyrimido[4,5-b]pyrrolo[2,1-k][6,1,9,12]benzoxatriazacyclopentadecin-11(8H)-one, 19-chloro-9,10,11a,12,13,14,16,21-octahydro-22-methoxy-] |  | 261.2 to 265 °C | 31.6 nM | 5.5 |
| COc1cc2ncnc3c2cc1OCCNC(=O)CN(C)Cc1ccc(Cl)cc1N3 [Compound 72, 4,6-ethanediylidenepyrimido[4,5-b][6,1,9,12]benzoxatriazacyclopentadecin-11(8H)-one, 17-chloro-9,10,12,13,14,19-hexahydro-20-methoxy-13-methyl-] | 10000 nM | 288.5 to 290.5 °C | 158 nM |  |
| COc1cc2ncnc3c2cc1OCCNC(=O)CNCc1ccc(Cl)cc1N3 [Compound 73, 4,6-ethanediylidenepyrimido[4,5-b][6,1,9,12]benzoxatriazacyclopentadecin-11(8H)-one, 17-chloro-9,10,12,13,14,19-hexahydro-20-methoxy-] | 3980 nM | 294.2 to 295.2 °C | 39.8 nM |  |
| COc1cc2ncnc3c2cc1OCCCNC(=O)C1CCCN1Cc1ccc(Cl)cc1N3 (stereo not shown) [Compound 77, 4,6-ethanediylidene-12H-pyrimido[4,5-b]pyrrolo[2,1-l][6,1,10,13]benzoxatriazacyclohexadecin-12-one, 20-chloro-8,9,10,11,12a,13,14,15,17,22-decahydro-23-methoxy-] |  | 129.8 to 132.8 °C |  |  |
| COc1cc2ncnc3c2cc1OCCCNC(=O)C1CCCN1Cc1ccc(Cl)cc1N3 (stereo not shown) [Compound 84, 4,6-ethanediylidene-12H-pyrimido[4,5-b]pyrrolo[2,1-l][6,1,10,13]benzoxatriazacyclohexadecin-12-one, 20-chloro-8,9,10,11,12a,13,14,15,17,22-decahydro-23-methoxy-] |  | 231.9 to 232.8 °C |  |  |
| COc1cc2ncnc3c2cc1OCCNC(=O)C1CCN(CC1)Cc1ccc(Cl)cc1N3 [Compound 87, 8H-4,6-ethanediylidene-12,15-ethanopyrimido[4,5-b][6,1,9,14]benzoxatriazacycloheptadecin-11(12H)-one, 19-chloro-9,10,13,14,16,21-hexahydro-24-methoxy-] |  | 246.6 to 248.2 °C |  |  |
| COc1cc2ncnc3c2cc1OCCNC(=O)C(C)N(C)Cc1ccc(Cl)cc1N3 (stereo not shown) [Compound 89, 4,6-ethanediylidenepyrimido[4,5-b][6,1,9,12]benzoxatriazacyclopentadecin-11(8H)-one, 17-chloro-9,10,12,13,14,19-hexahydro-20-methoxy-12,13-dimethyl-] |  | 265 °C |  |  |
| CCN1CC(=O)NCCOc2cc3c(ncnc3cc2OC)Nc2cc(Cl)ccc2C1 [Compound 90, 4,6-ethanediylidenepyrimido[4,5-b][6,1,9,12]benzoxatriazacyclopentadecin-11(8H)-one, 17-chloro-13-ethyl-9,10,12,13,14,19-hexahydro-20-methoxy-] |  | 261.1 to 262 °C |  |  |
| COc1cc2ncnc3c2cc1OCCNC(=O)C(CO)NCc1ccc(Cl)cc1N3 (stereo not shown) [Compound 91, 4,6-ethanediylidenepyrimido[4,5-b][6,1,9,12]benzoxatriazacyclopentadecin-11(8H)-one, 17-chloro-9,10,12,13,14,19-hexahydro-12-(hydroxymethyl)-20-methoxy-] |  | 276.3 to 277.4 °C |  |  |
| COc1cc2ncnc3c2cc1OCCCNC(=O)CN1CCN(CC1)Cc1ccc(Cl)cc1N3 [Compound 93, 4,6-ethanediylidene-14,17-ethanopyrimido[4,5-b][6,1,10,13,16]benzoxatetraazacyclononadecin-12(13H)-one, 21-chloro-8,9,10,11,15,16,18,23-octahydro-26-methoxy-] |  | 286.8 to 287.6 °C |  |  |
| COc1cc2ncnc3c2cc1OCCCNC(=O)C1CCCN(Cc2ccc(Cl)cc2N3)C1 (stereo not shown) [Compound 95, 12H-4,6-ethanediylidene-13,17-methanopyrimido[4,5-b][6,1,10,16]benzoxatriazacyclononadecin-12-one, 21-chloro-8,9,10,11,13,14,15,16,18,23-decahydro-25-methoxy-] |  | 240.1 to 242.8 °C |  |  |
| COc1cc2ncnc3c2cc1OCC(=O)NCCCC(=O)NCCc1ccc(Cl)cc1N3 [Compound 161, 4,6-ethanediylidene-8H-pyrimido[4,5-b][6,1,9,14]benzoxatriazacyclooctadecine-9,14-dione, 20-chloro-10,11,12,13,15,16,17,22-octahydro-23-methoxy-] | 1260 nM |  | 63.1 nM |  |
| COc1cc2ncnc3c2cc1OCCCCC(=O)NCCC(=O)NCc1ccc(Cl)cc1N3 [Compound 162, 4,6-ethanediylidenepyrimido[4,5-b][6,1,12,16]benzoxatriazacyclononadecine-12,16(13H,17H)-dione, 21-chloro-8,9,10,11,14,15,18,23-octahydro-24-methoxy-] | 50.1 nM |  | 158 nM |  |
| COc1cc2ncnc3c2cc1OCCCCC(=O)NCCCC(=O)NCc1ccc(Cl)cc1N3 [Compound 163, 4,6-ethanediylidene-8H-pyrimido[4,5-b][6,1,12,17]benzoxatriazacycloeicosine-12,17(18H)-dione, 22-chloro-9,10,11,13,14,15,16,19,24-nonahydro-25-methoxy-] | 398 nM |  | 100 nM |  |
| COc1cc2ncnc3c2cc1OCC(=O)N(C)CC(=O)NCCc1ccc(Cl)cc1N3 [Compound 164, 4,6-ethanediylidene-8H-pyrimido[4,5-b][6,1,9,12]benzoxatriazacyclohexadecine-9,12-dione, 18-chloro-10,11,13,14,15,20-hexahydro-21-methoxy-10-methyl-] | 158 nM |  | 501 nM |  |
